Measurements reported in PMC4161151 (Journal of Medicinal Chemistry, 2014).
In brackets after ≈: the same amount, converted by molar mass. Several values for one entry are separate records, joined by “and”; a condition that tells them apart may be missing. Equal values may be shown once. Read-outs that look alike come from different tables or passages of the source.

Legend:
δ opioid receptor [1] = target: T1, δ opioid receptor (Homo sapiens, UniProt P41143); conditions: for Ke δ, DPDPE: cloned human δ receptor; for behaviour at the δ receptor: δ opioid receptor [35S]GTPγS assay, result in words
κ opioid receptor [2] = target: T2, κ opioid receptor (Homo sapiens, UniProt P41145); conditions: for Ke κ, U69,593: cloned human κ receptor, mean (SE), at least three independent experiments; for δ/κ: selectivity for κ relative to δ; for δ/κ / μ/κ: ratio of Ke values; for μ/κ: selectivity for κ relative to μ
μ opioid receptor [3] = target: T3, μ opioid receptor (Homo sapiens, UniProt P35372); conditions: cloned human μ receptor; mean (SE), at least three independent experiments
δ opioid receptor [4] = conditions: read-out: Ki δ; cited from earlier work
MDCK-MDR1 cells = assay: MDCK-MDR1 permeability; conditions: percent transported from the optical to basal side
δ opioid receptor [5] = target: T1, δ opioid receptor; assay: biochemical
[6] = Parallel artificial membrane permeability assay; format: in vitro ADME; conditions: 4 h; for PAMPA pH 5.5, percent transported: pH 5.5, 10 μM; for PAMPA pH 7.4, percent transported: pH 7.4, 10 μM
μ opioid receptor [7] = target: T3, μ opioid receptor; assay: biochemical
[8] = Kinetic solubility, 96-well plate assay; format: physicochemical; conditions: for solubility at 90 min: phosphate buffer
hERG channel = hERG channel (Homo sapiens, UniProt Q12809); assay: hERG [3H]astemizole radioligand displacement assay
κ opioid receptor [9] = target: T2, κ opioid receptor; assay: biochemical
[10] = mean (SE), at least three independent experiments

T2 sequence (P41145 whole entry): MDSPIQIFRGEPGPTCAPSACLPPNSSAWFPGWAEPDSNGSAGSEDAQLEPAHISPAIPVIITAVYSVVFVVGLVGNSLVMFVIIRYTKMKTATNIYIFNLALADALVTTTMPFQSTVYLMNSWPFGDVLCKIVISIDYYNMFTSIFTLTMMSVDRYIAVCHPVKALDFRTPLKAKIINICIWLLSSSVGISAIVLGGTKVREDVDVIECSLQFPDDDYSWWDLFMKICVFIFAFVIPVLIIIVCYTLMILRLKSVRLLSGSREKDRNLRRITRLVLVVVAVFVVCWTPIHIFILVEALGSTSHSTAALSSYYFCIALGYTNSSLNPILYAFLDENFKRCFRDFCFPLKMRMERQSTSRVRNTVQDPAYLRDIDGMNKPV
T1 sequence (P41143 whole entry): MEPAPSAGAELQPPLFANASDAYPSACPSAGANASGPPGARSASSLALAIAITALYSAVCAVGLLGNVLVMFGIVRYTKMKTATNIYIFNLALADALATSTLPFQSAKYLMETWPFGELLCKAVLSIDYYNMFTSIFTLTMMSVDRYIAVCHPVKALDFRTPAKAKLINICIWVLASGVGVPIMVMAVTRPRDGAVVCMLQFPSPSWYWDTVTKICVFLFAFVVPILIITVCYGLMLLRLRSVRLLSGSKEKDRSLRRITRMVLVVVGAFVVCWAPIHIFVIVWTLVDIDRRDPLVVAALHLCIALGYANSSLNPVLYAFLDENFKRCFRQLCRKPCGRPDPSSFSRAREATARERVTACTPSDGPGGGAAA
T3 sequence (P35372 whole entry): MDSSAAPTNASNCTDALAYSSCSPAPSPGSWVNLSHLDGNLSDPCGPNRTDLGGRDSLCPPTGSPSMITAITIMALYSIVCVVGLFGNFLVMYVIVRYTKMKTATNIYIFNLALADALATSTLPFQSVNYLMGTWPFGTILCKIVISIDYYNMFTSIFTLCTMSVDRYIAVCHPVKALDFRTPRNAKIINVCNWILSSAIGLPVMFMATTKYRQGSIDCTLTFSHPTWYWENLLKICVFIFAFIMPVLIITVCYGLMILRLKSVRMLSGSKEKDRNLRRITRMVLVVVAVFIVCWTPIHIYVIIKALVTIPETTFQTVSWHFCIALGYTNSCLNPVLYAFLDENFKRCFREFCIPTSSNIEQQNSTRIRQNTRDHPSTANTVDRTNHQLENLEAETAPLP
hERG channel, sequence (Q12809 whole entry): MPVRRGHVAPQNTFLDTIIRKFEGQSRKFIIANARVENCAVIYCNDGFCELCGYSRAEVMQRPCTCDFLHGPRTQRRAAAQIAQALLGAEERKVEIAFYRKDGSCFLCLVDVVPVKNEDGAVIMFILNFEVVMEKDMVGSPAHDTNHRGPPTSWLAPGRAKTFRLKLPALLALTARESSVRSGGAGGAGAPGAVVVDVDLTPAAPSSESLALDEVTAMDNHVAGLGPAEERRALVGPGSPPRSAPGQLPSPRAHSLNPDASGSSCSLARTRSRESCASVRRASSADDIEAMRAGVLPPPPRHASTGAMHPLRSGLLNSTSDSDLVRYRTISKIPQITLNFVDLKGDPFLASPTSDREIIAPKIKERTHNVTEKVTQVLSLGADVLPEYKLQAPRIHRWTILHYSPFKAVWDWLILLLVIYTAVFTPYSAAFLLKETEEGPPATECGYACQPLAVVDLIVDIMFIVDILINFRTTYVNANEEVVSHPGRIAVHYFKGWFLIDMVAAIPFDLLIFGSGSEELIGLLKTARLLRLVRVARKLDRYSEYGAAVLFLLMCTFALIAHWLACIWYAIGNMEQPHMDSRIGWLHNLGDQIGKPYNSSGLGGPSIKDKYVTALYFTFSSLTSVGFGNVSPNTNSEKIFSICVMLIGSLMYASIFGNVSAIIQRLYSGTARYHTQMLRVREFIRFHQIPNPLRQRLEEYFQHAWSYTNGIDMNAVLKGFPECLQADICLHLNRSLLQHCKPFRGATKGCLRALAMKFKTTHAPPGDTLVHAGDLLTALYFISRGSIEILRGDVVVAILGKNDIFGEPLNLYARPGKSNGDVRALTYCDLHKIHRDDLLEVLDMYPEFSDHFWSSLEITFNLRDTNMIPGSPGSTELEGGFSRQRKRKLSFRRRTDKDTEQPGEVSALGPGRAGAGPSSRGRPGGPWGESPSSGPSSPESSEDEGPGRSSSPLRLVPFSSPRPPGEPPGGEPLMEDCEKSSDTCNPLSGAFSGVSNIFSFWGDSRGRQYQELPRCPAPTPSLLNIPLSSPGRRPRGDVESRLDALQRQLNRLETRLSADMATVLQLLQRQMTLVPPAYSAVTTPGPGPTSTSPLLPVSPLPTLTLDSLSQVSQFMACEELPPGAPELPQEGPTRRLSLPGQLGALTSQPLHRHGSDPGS

| Compound | Ke δ, DPDPE (δ opioid receptor [1]; [10]) | Ke κ, U69,593 (κ opioid receptor [2]) | δ/κ (κ opioid receptor [2]) | μ/κ (κ opioid receptor [2]) | Ke μ, DAMGO (μ opioid receptor [3]) | plasma stability (% of parent) (Plasma stability) | MDCK, percent transported (MDCK-MDR1 cells) [%] | S9 stability (% of parent) (S9 stability) | also measured |
| --- | --- | --- | --- | --- | --- | --- | --- | --- | --- |
| (3R)-N-[(1S)-1-{[(3R,4R)-4-(3-Chlorophenyl)-3,4-dimethylpiperidin-1-yl]methyl}-2-methylpropyl]-7-hydroxy-1,2,3,4-tetrahydroisoquinoline-3-carboxamide [Compound 6] | 685 ± 99 nM | 0.039 ± 0.001 nM | 17600 | 175 | 6.81 ± 2.6 nM | – | – | – | – |
| C[C@H]1CN(CC[C@H](O)C2CCCCC2)CC[C@@]1(C)c1cccc(O)c1 [LY255582] | – | – | – | – | – | – | – | – | Ki (δ opioid receptor [4]): 4.8 nM |
| (3R)-7-Fluoro-N-[(1S)-1-{[(3R,4R)-4-(3-Fluorophenyl)-3,4-dimethylpiperidin-1-yl]methyl}-2-methylpropyl]-1,2,3,4-tetrahydroisoquinoline-3-carboxamide [Compound 12] | – | 2.22 nM and 2.22 ± 0.47 nM | – | 162 | 360 ± 63 nM | – | – | – | behaviour at the δ receptor (δ opioid receptor [1]): weak inverse agonist |
| (3R)-N-[(1S)-1-{[(3R,4R)-4-(3-Hydroxyphenyl)-3,4-dimethylpiperidin-1-yl]methyl}-2-methylpropyl]-7-1,2,3,4-tetrahydroisoquinoline-3-carboxamide [Compound 9] | 158 nM and 158 ± 49 nM | 4.3 ± 2 nM | 37 | 3.7 | 16 ± 5 nM | – | – | – | – |
| CC(C)[C@@H](CN1CC[C@@](C)(c2ccccc2)[C@@H](C)C1)NC(=O)[C@H]1Cc2ccc(O)cc2CN1 [Compound 4, (3R)-N-[(1S)-1-{[(3R,4R)-3,4-Dimethyl-4-phenylpiperidin-1-yl]methyl}-2-methylpropyl]-7-hydroxy-1,2,3,4-tetrahydroisoquinoline-3-carboxamide] | – | – | – | – | – | 67.0 % of parent | 27 | 82.0 % of parent | – |
| (3R)-7-Fluoro-N-[(1S)-1-{[(3R,4R)-4-(3-Hydroxyphenyl)-3,4-dimethylpiperidine-1-yl]methyl}-2-methylpropyl]-1,2,3,4-tetrahydroisoquinoline-3-carboxamide [Compound 10] | – | 2.20 ± 0.47 nM | – | 3.5 | 7.7 ± 0.9 nM | – | – | – | behaviour at the δ receptor (δ opioid receptor [1]): weak inverse agonist |
| CC(C)[C@@H](CN1CC[C@@](C)(c2cccc(C(N)=O)c2)[C@@H](C)C1)NC(=O)[C@H]1Cc2ccc(C(N)=O)cc2CN1 [Compound 14, (3R)-N^3-[(1S)-1-{[(3R,4R)-4-(3-Carbamoylphenyl)-3,4-dimethylpiperidin-1-yl]methyl}-2-methylpropyl]-1,2,3,4-tetrahydroisoquinoline-3,7-dicarboxamide] | – | – | 4700 | 230 | – | 55.3 % of parent | 14 | 90.9 % of parent | Kb (δ opioid receptor [5]): 517 ± 52 nM; PAMPA pH 5.5, percent transported [6]: 36.4%; PAMPA pH 7.4, percent transported [6]: 32.2%; Kb (μ opioid receptor [7]): 25.3 ± 7.89 nM; solubility at pH 7.4 ([8]; pH 7.4): > 20%; solubility at 90 min ([8]; pH 3): 100 µM (≈ 52 µg/mL); solubility at 90 min ([8]; pH 7.4): 81 µM (≈ 42.1 µg/mL); Ki (hERG channel): > 10 µM; Kb (κ opioid receptor [9]): 0.11 ± 0.02 nM |
| (3R)-N^3-[(1S)-1-{[(3R,4R)-3,4-Dimethyl-4-phenylpiperidin-1-yl]methyl}-2-methylpropyl]-1,2,3,4-tetrahydroisoquinoline-3,7-dicarboxamide [Compound 15] | 111 ± 29 nM | 0.041 ± 0.006 nM | 2700 | 163 | 6.70 ± 2.1 nM | – | – | – | – |
| CC(C)[C@@H](CN1CC[C@@](C)(c2cccc(O)c2)[C@@H](C)C1)NC(=O)[C@H]1Cc2ccc(O)cc2CN1 [JDTic, (3R)-1,2,3,4-tetrahydro-7-hydroxy-N-[(1S)-1-[[(3R,4R)-4-(3-hydroxyphenyl)-3,4-dimethyl-1-piperidinyl]methyl]-2-methylpropyl]-3-isoquinolinecarboxamide, reference compound] | – | – | – | – | – | 97 % of parent | 11 | 76 % of parent | – |
| (3R)-N-[(1S)-1-{[(3R,4R)-4-(3-Bromophenyl)-3,4-dimethylpiperidin-1-yl]methyl}-2-methylpropyl]-7-hydroxy-1,2,3,4-tetrahydroisoquinoline-3-carboxamide [Compound 7] | 594 ± 160 nM | 0.268 nM and 0.268 ± 0.01 nM | 2200 | 25 | 6.56 ± 0.44 nM | – | – | – | – |
| CC(C)[C@@H](CN1CC[C@@](C)(c2cccc(O)c2)[C@@H](C)C1)NC(=O)[C@H]1Cc2ccc(C(N)=O)cc2CN1 [Compound 13, (3R)-N^3-[(1S)-1-{[(3R,4R)-4-(3-Hydroxyphenyl)-3,4-dimethylpiperidin-1-yl]methyl}-2-methylpropyl]-1,2,3,4-tetrahydroisoquinoline-3,7-dicarboxamide] | – | – | 6550 | 355 | – | 84.7 % of parent | 17 | 91.5 % of parent | Kb (δ opioid receptor [5]): 131 ± 23 nM; PAMPA pH 5.5, percent transported [6]: 39.1%; PAMPA pH 7.4, percent transported [6]: 28.3%; Kb (μ opioid receptor [7]): 7.09 ± 2.58 nM; solubility at pH 7.4 ([8]; pH 7.4): > 20%; solubility at 90 min ([8]; pH 3): 77 µM (≈ 37.9 µg/mL); solubility at 90 min ([8]; pH 7.4): 38 µM (≈ 18.7 µg/mL); Ki (hERG channel): > 10 µM; Kb (κ opioid receptor [9]): 0.02 ± 0.005 nM |
| (3R)-N-[(1S)-1-{[(3R,4R)-3,4-Dimethyl-4-phenylpiperidin-1-yl]methyl}-2-methylpropyl]-1,2,3,4-tetrahydroisoquinoline-3-carboxamide [Compound 11] | – | 16 ± 7 nM | >188 | 45 | 724 ± 146 nM | – | – | – | Ke δ, DPDPE (δ opioid receptor [1]): >3000 nM |
| (3R)-N-[(1S)-1-{[(3R,4R)-4-(3-Aminophenyl)-3,4-dimethylpiperidin-1-yl]methyl}-2-methylpropyl]-7-hydroxy-1,2,3,4-tetrahydroisoquinoline-3-carboxamide [Compound 8] | 1899 ± 657 nM | 0.25 ± 0.09 nM | 7600 | 42 | 10.6 nM and 10.6 ± 3.6 nM | – | – | – | – |
